In patent US7932270B2 (Cytokinetics, Inc., priority 2006, dated 2011):
pIC50: −log10 of the molar value.

Target: T1, chicken gizzard smooth muscle myosin subfragment-1 chemically crosslinked to cardiac or skeletal actin (Gallus gallus, UniProt P10587)
T1 construct: chicken gizzard smooth muscle myosin subfragment-1; from tissue; host or cells: chicken gizzard
Assay: Smooth muscle myosin ATPase dose response assay (pyruvate kinase/horseradish peroxidase/pyruvate oxidase-coupled, amplex red fluorescence)
Type: biochemical
Conditions: read-out: IC50 Arithmetic Mean
Procedure: In Vitro Model of Dose Dependent Smooth Muscle Myosin ATPase Modulation
Screening assays were performed using a pyruvate kinase and lactate dehydrogenase-coupled ATPase assay containing the following reagents: Potassium PIPES (50 mM), MgCl2 (3 mM), KCl (100 mM), ATP (0.15 mM), DTT (1 mM), BSA (0.1 mg/ml), NADH (0.5 mM), PEP (1.5 mM), pyruvate kinase (4 U/ml), lactate dehydrogenase (8 U/ml), and antifoam (50 ppm) (concentrations expressed are final assay concentrations). The pH was adjusted to 6.80 at 22° C. by addition of potassium hydroxide. Lead optimization assays were performed with a more sensitive pyruvate kinase/horseradish peroxidase/pyruvate oxidase-coupled ATPase assay containing the following reagents: Potassium PIPES (12 mM), MgCl2 (2 mM), KCl (100 mM), ATP (0.15 mM), BSA (0.05 mg/ml), potassium phosphate (2 mM), amplex red (0.1 mM), PEP (0.1 mM), pyruvate kinase (4 U/ml), horseradish peroxidase (0.5 U/ml), pyruvate oxidase (0.5 U/ml), and antifoam (50 ppm) (concentrations expressed are final assay concentrations). The pH was adjusted to 7.00 at 22° C. by addition of potassium hydroxide.
The protein components specific to this assay are chicken gizzard smooth muscle myosin subfragment-1 that has been chemically crosslinked to either cardiac or skeletal actin using an excess of 1-Ethyl-3-[3-dimethylaminopropyl]carbodiimide hydrochloride and N-hydroxysuccinimide. The exact concentration of the crosslinked smooth muscle myosin in the assay is determined empirically, by titration to achieve a desired rate of ATP hydrolysis. The concentration varies between protein preparations due to variations in the fraction of active molecules in each preparation.
Compound dose response assays are performed by first preparing a dilution series of test compound, each with an assay mixture containing potassium PIPES, MgCl2, KCl, ATP, BSA, potassium phosphate, amplex red, PEP, crosslinked smooth muscle actomyosin (subfragment-1), antifoam, and water. The assay is started by adding an equal volume of solution containing potassium Pipes, MgCl2, KCl, BSA, potassium phosphate, pyruvate kinase, horseradish peroxidase, pyruvate oxidase, antifoam, and water. ATP hydrolysis is monitored by measuring the fluorescence of amplex red (excitation at 480 nm, emission at 615 nm). The resulting dose response curve is fit by the 4 parameter equation y=Bottom+((Top-Bottom)/(1+((IC50/X)^Hill))). The IC50 is defined as the concentration at which ATPase activity is midway between the top and bottom of the dose response curve.

T1 sequence (P02607 2-151): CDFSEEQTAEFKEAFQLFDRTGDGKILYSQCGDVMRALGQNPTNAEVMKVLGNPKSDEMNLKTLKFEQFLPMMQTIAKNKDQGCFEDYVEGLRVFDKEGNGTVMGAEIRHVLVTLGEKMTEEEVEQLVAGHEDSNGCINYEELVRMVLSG
T1 sequence (P10587 84-789): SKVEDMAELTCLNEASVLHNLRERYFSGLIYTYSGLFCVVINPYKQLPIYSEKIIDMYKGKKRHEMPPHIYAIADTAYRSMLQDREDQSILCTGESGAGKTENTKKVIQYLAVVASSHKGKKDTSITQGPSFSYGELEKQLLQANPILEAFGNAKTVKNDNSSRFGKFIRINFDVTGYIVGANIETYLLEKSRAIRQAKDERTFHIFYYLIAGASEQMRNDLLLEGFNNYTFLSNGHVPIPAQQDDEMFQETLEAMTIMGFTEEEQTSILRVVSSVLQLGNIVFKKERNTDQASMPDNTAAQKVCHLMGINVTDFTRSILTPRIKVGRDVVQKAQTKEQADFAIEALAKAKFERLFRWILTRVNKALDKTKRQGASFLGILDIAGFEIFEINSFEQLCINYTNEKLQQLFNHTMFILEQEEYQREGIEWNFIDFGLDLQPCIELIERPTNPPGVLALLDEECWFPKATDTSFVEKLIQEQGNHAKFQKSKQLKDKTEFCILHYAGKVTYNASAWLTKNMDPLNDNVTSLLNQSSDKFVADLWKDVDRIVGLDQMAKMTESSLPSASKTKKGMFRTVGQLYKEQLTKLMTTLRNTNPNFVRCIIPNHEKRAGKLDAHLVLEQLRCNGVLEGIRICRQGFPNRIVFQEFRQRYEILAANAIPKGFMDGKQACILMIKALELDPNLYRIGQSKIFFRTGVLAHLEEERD

Going from `O=C(O)c1cccc(CCNc2nc(-c3ccccc3)ccc2C(=O)NCc2cccnc2)c1` [3-[2-({6-phenyl-3-[N-(3-pyridylmethyl)carbamoyl]-2-pyridyl}amino)ethyl]benzoic acid] to `O=C(NCc1cccnc1)c1ccc(-c2ccccc2)nc1NCCc1ccccc1O` [(2-{[2-(2-hydroxyphenyl)ethyl]amino}-6-phenyl(3-pyridyl))-N-(3-pyridylmethyl)carboxamide], the pIC50 rises from 4.66 to 5.61 (0.95 log units). The second is the more potent here.

First: CNC(=O)CCNC(=O)c1ccc(-c2ccccc2C#N)nc1NCCc1cccc(F)c1 [3-[(6-(2-cyanophenyl)-2-{[2-(3-fluorophenyl)ethyl]amino}(3-pyridyl))carbonylamino]-N-methylpropanamide]
Second: CNC(=O)CCCNC(=O)c1ccc(-c2ccccc2C#N)nc1NCCc1cccc(F)c1 [4-[(6-(2-cyanophenyl)-2-{[2-(3-fluorophenyl)ethyl]amino}(3-pyridyl))carbonylamino]-N-methylbutanamide]
The pIC50 of the first is 0.94 log units higher: 6.47 for the first, 5.53 for the second.

Going from `N#Cc1ccccc1-c1ccc(C(=O)NC2CCC(C(N)=O)C2)c(NCCc2cccc(F)c2)n1` (centres unmarked) [3-[(6-(2-cyanophenyl)-2-{[2-(3-fluorophenyl)ethyl]amino}-3-pyridyl)carbonylamino]cyclopentanecarboxamide] to `N#Cc1ccccc1-c1ccc(C(=O)NCCCC(=O)O)c(NCCc2cccc(F)c2)n1` [4-[(6-(2-cyanophenyl)-2-{[2-(3-fluorophenyl)ethyl]amino}-3-pyridyl)carbonylamino]butanoic acid], the pIC50 rises from 4.93 to 6.20 (1.27 log units). The second is the more potent here.

Compared with `N#Cc1ccccc1-c1ccc(C(=O)NCC(CN)C(=O)NCCN)c(NCCc2cccc(F)c2)n1` (centres unmarked) [3-amino-N-(2-aminoethyl)-2-{[(6-(2-cyanophenyl)-2-{[2-(3-fluorophenyl)ethyl]amino}(3-pyridyl))carbonylamino]methyl}propanamide], `N#Cc1ccccc1-c1ccc(C(=O)NCCNC(=O)CCN)c(NCCc2cccc(F)c2)n1` [3-amino-N-{2-[(6-(2-cyanophenyl)-2-{[2-(3-fluorophenyl)ethyl]amino}(3-pyridyl))carbonylamino]ethyl}propanamide] is 0.50 log units higher in pIC50: 4.86 for the first, 5.36 for the second.

`CN(CCNC(=O)c1ccc(-c2ccccc2C#N)nc1NCCc1cccc(F)c1)C(=O)CCN` [3-amino-N-{2-[(6-(2-cyanophenyl)-2-{[2-(3-fluorophenyl)ethyl]amino}(3-pyridyl))carbonylamino]ethyl}-N-methylpropanamide] and `CN(CCNC(=O)c1ccc(-c2ccccc2C#N)nc1NCCc1cccc(F)c1)C(=O)CCCN` [4-amino-N-{2-[(6-(2-cyanophenyl)-2-{[2-(3-fluorophenyl)ethyl]amino}(3-pyridyl))carbonylamino]ethyl}-N-methylbutanamide] are within 0.2 log units of each other in pIC50: 5.75 for the first, 5.92 for the second.

First: N#Cc1ccccc1-c1ccc(C(=O)NCC(=O)NCCC(=O)O)c(NCCc2cccc(F)c2)n1 [3-{2-[(6-(2-cyanophenyl)-2-{[2-(3-fluorophenyl)ethyl]amino}-3-pyridyl)carbonylamino]acetylamino}propanoic acid]
Second: N#Cc1ccccc1-c1ccc(C(=O)NCCNC(=O)CCCN)c(NCCc2cccc(F)c2)n1 [4-amino-N-{2-[(6-(2-cyanophenyl)-2-{[2-(3-fluorophenyl)ethyl]amino}(3-pyridyl))carbonylamino]ethyl}butanamide]
The pIC50 of the first is 0.89 log units lower: 5.01 for the first, 5.90 for the second.

`CN(C)C(=O)CCNc1nc(-c2ccccc2C#N)ccc1C(=O)NC[C@H]1CCCN1C(=O)CCCN` [3-{[3-(N-{[(2R)-1-(4-aminobutanoyl)pyrrolidin-2-yl]methyl}carbamoyl)-6-(2-cyanophenyl)(2-pyridyl)]amino}-N,N-dimethylpropanamide] and `CN(CCNC(=O)c1ccc(-c2ccccc2C#N)nc1NCCc1cccc(F)c1)C(=O)CCCNC(=O)OC(C)(C)C` [4-[(tert-butoxy)carbonylamino]-N-{2-[(6-(2-cyanophenyl)-2-{[2-(3-fluorophenyl)ethyl]amino}(3-pyridyl))carbonylamino]ethyl}-N-methylbutanamide] are within 0.2 log units of each other in pIC50: 5.45 for the first, 5.41 for the second.

Going from `NC(=O)c1ccc(-c2ccc(C(=O)NCc3cccnc3)c(NCCc3ccccn3)n2)cc1` [4-{6-[(2-(2-pyridyl)ethyl)amino]-5-[N-(3-pyridylmethyl)carbamoyl]-2-pyridyl}benzamide] to `O=C(O)c1ccc(-c2ccc(C(=O)NCc3cccnc3)c(NCCc3ccccn3)n2)cc1` [4-{6-[(2-(2-pyridyl)ethyl)amino]-5-[N-(3-pyridylmethyl)carbamoyl]-2-pyridyl}benzoic acid], the pIC50 falls from 5.60 to 4.74 (0.86 log units). The first is the more potent here.

First: CC1CN(C(=O)c2cc(F)c(-c3cnn(C)c3)nc2NCCc2cccc(F)c2)C1 [5-fluoro-2-{[2-(3-fluorophenyl)ethyl]amino}-6-(1-methylpyrazol-4-yl)(3-pyridyl) 3-methylazetidinyl ketone]
Second: O=C(NCc1cccnc1)c1ccc(-c2ccccc2)nc1NCCc1cc(F)ccc1F [(2-{[2-(2,5-difluorophenyl)ethyl]amino}-6-phenyl(3-pyridyl))-N-(3-pyridylmethyl)carboxamide]
The pIC50 of the first is 2.12 log units lower: 4.98 for the first, 7.10 for the second. The second is the more potent here.

`N#Cc1ccccc1-c1ccc(C(=O)NCc2cccc(C(N)=O)n2)c(NCCc2cccc(F)c2)n1` [6-{[(6-(2-cyanophenyl)-2-{[2-(3-fluorophenyl)ethyl]amino}-3-pyridyl)carbonylamino]methyl}pyridine-2-carboxamide] and `N#Cc1ccccc1-c1ccc(C(=O)NCc2cccc(C(=O)O)n2)c(NCCc2cccc(F)c2)n1` [6-{[(6-(2-cyanophenyl)-2-{[2-(3-fluorophenyl)ethyl]amino}-3-pyridyl)carbonylamino]methyl}pyridine-2-carboxylic acid] are within 0.2 log units of each other in pIC50: 7.22 for the first, 7.33 for the second.

First: CN1CCC(CCNc2nc(-c3ccccc3)ccc2C(=O)NCc2cccnc2)CC1 [(2-{[2-(1-methyl(4-piperidyl))ethyl]amino}-6-phenyl(3-pyridyl))-N-(3-pyridylmethyl)carboxamide]
Second: O=C(NCc1cccnc1)c1ccc(-c2ccccc2)nc1NCCN1CCCC1=O [(2-{[2-(2-oxopyrrolidinyl)ethyl]amino}-6-phenyl(3-pyridyl))-N-(3-pyridylmethyl)carboxamide]
The pIC50 of the first is 0.27 log units lower: 4.70 for the first, 4.97 for the second.

Compared with `Cn1cnc(CCNc2nc(-c3ccccc3)ccc2C(=O)NCc2cccnc2)c1` [(2-{[2-(1-methylimidazol-4-yl)ethyl]amino}-6-phenyl(3-pyridyl))-N-(3-pyridylmethyl)carboxamide], `Cc1ccccc1CCNc1nc(-c2ccccc2)ccc1C(=O)NCc1cccnc1` [(2-{[2-(2-methylphenyl)ethyl]amino}-6-phenyl(3-pyridyl))-N-(3-pyridylmethyl)carboxamide] is 2.00 log units higher in pIC50: 4.49 for the first, 6.49 for the second. The second is the more potent here.

`N#Cc1ccccc1-c1ccc(C(=O)NCc2cccnc2)c(NCCc2cccc(F)c2F)n1` [(2-{[2-(2,3-difluorophenyl)ethyl]amino}-6-(2-cyanophenyl)(3-pyridyl))-N-(3-pyridylmethyl)carboxamide] and `N#Cc1ccccc1-c1ccc(C(=O)NCc2cccnc2)c(NCCc2ccccc2Cl)n1` [(2-{[2-(2-chlorophenyl)ethyl]amino}-6-(2-cyanophenyl)(3-pyridyl))-N-(3-pyridylmethyl)carboxamide] are within 0.2 log units of each other in pIC50: 7.66 for the first, 7.55 for the second.

Going from `O=C(NCc1cccnc1)c1ccc(-c2ccccc2)nc1NCCc1c(F)cccc1F` [(2-{[2-(2,6-difluorophenyl)ethyl]amino}-6-phenyl(3-pyridyl))-N-(3-pyridylmethyl)carboxamide] to `O=C(NCc1cccnc1)c1ccc(-c2ccccc2)nc1NCCc1ccc(F)c(F)c1` [(2-{[2-(3,4-difluorophenyl)ethyl]amino}-6-phenyl(3-pyridyl))-N-(3-pyridylmethyl)carboxamide], the pIC50 falls from 6.54 to 6.28 (0.26 log units).

`O=C(NCc1cccnc1)c1ccc(-c2ccccc2)nc1NCCc1ccccc1Cl` [(2-{[2-(2-chlorophenyl)ethyl]amino}-6-phenyl(3-pyridyl))-N-(3-pyridylmethyl)carboxamide] and `O=C(NCc1cccnc1)c1ccc(-c2ccccc2)nc1NCCc1ccccc1F` [(2-{[2-(2-fluorophenyl)ethyl]amino}-6-phenyl(3-pyridyl))-N-(3-pyridylmethyl)carboxamide] are within 0.2 log units of each other in pIC50: 6.80 for the first, 6.97 for the second.

Going from `COc1ccccc1CCNc1nc(-c2ccccc2)ccc1C(=O)NCc1cccnc1` [(2-{[2-(2-methoxyphenyl)ethyl]amino}-6-phenyl(3-pyridyl))-N-(3-pyridylmethyl)carboxamide] to `O=C(NCc1cccnc1)c1ccc(-c2ccccc2)nc1NCCN1CCCCC1=O` [(2-{[2-(2-oxopiperidyl)ethyl]amino}-6-phenyl(3-pyridyl))-N-(3-pyridylmethyl)carboxamide], the pIC50 falls from 6.01 to 4.65 (1.36 log units). The first is the more potent here.
